Columns and labels:
[1] = target: T1, Serine/threonine-protein kinase Chk1 (Homo sapiens, UniProt O14757); assay: Inhibition of human Chk1 in H1299 cells assessed as blockade of Cdc25A degradation; type: cell-based
T1 sequence (O14757 whole entry): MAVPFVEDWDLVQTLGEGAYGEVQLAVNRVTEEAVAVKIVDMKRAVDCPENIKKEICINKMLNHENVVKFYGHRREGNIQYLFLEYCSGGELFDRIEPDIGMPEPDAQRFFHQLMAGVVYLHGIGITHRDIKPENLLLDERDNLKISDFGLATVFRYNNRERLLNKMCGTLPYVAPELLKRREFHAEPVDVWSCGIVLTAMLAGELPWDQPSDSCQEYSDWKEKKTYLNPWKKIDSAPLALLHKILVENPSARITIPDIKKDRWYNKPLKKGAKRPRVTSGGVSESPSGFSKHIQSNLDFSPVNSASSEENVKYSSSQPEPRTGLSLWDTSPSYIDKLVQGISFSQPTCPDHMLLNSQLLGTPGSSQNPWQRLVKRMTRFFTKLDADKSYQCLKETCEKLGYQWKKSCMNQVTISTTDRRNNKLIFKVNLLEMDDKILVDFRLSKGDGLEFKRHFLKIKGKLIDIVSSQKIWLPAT

HeLa = assay: Antiproliferative activity against human HeLa cells after 48 hrs by MTS assay; type: functional, cell-based
[2] = Cell cycle arrest in human H1299 cells assessed as accumulation at G2/M phase by FACS; type: functional, cell-based; settings: NCI-H1299
[3] = target: T1, Serine/threonine-protein kinase Chk1; assay: Inhibition of recombinant Chk1

Structure (SMILES)	EC50 [1]	EC50 (HeLa)	EC50 [2]	IC50 [3]
COc1cc2c(cc1OCCN1CCOCC1)Nc1cc(-c3ccc([N+](=O)[O-])c(OC)c3)ccc1C(=O)N2	200 nM	2000 nM	2400 nM	8.1 nM
COc1cc2c(cc1CCCO)NC(=O)c1ccc(-c3ccc([N+](=O)[O-])c(OC)c3)cc1N2	220 nM	22000 nM	4300 nM	1.9 nM
COC(=O)c1cc2c(cc1OC)Nc1cc(-c3ccc([N+](=O)[O-])c(OC)c3)ccc1C(=O)N2	> 10000 nM	> 59000 nM	> 10000 nM	11.2 nM
COc1cc2c(cc1CCO)Nc1cc(-c3ccc([N+](=O)[O-])c(OC)c3)ccc1C(=O)N2	900 nM	> 59000 nM	> 10000 nM	3.5 nM
COc1cc2c(cc1OCc1ccccc1C(F)(F)F)Nc1cc(-c3ccc([N+](=O)[O-])c(OC)c3)ccc1C(=O)N2		> 59000 nM	> 10000 nM	1050 nM
COc1cc2c(cc1CCCO)Nc1cc(-c3ccc([N+](=O)[O-])c(OC)c3)ccc1C(=O)N2	1500 nM	> 59000 nM	> 10000 nM	2.6 nM
COC(=O)CCc1cc2c(cc1OC)NC(=O)c1ccc(-c3ccc([N+](=O)[O-])c(OC)c3)cc1N2	> 10000 nM	> 59000 nM	> 10000 nM	22 nM
COc1cc2c(cc1CCc1ccncc1)Nc1cc(-c3ccc([N+](=O)[O-])c(OC)c3)ccc1C(=O)N2	2100 nM	9600 nM	> 10000 nM	16.2 nM
COc1cc2c(cc1CC(C)(C)O)Nc1cc(-c3ccc([N+](=O)[O-])c(OC)c3)ccc1C(=O)N2	40 nM	> 59000 nM	1800 nM	3.4 nM
COc1cc2c(cc1OCCCCO)Nc1cc(-c3ccc([N+](=O)[O-])c(OC)c3)ccc1C(=O)N2	2000 nM	> 59000 nM	> 10000 nM	0.7 nM
COc1cc2c(cc1O)Nc1cc(-c3ccc([N+](=O)[O-])c(OC)c3)ccc1C(=O)N2	70 nM	> 59000 nM	> 10000 nM	0.9 nM
COc1cc2c(cc1OCCO)Nc1cc(-c3ccc([N+](=O)[O-])c(OC)c3)ccc1C(=O)N2	3100 nM	> 59000 nM	> 10000 nM	0.58 nM
COc1cc2c(cc1C(=O)N(C)C)NC(=O)c1ccc(-c3ccc([N+](=O)[O-])c(OC)c3)cc1N2	3500 nM	45000 nM	> 10000 nM	15.5 nM
COc1cc2c(cc1OCCCN)Nc1cc(-c3ccc([N+](=O)[O-])c(OC)c3)ccc1C(=O)N2	2600 nM	17300 nM	> 10000 nM	0.98 nM
COc1cc2c(cc1CCC(=O)N(C)C)Nc1cc(-c3ccc([N+](=O)[O-])c(OC)c3)ccc1C(=O)N2	50 nM	> 59000 nM	> 10000 nM	7.9 nM
COc1cc2c(cc1OC)Nc1cc(-c3ccc([N+](=O)[O-])c(OC)c3)ccc1C(=O)N2	280 nM	> 59000 nM	> 10000 nM	0.6 nM
COCCOCCOc1cc2c(cc1OC)NC(=O)c1ccc(-c3ccc([N+](=O)[O-])c(OC)c3)cc1N2	3100 nM	52000 nM	> 10000 nM	3.1 nM
CCc1cc2c(cc1OC)Nc1cc(-c3ccc([N+](=O)[O-])c(OC)c3)ccc1C(=O)N2	350 nM	4500 nM	> 10000 nM	9 nM
COc1cc2c(cc1OCc1csc(C)n1)Nc1cc(-c3ccc([N+](=O)[O-])c(OC)c3)ccc1C(=O)N2	> 10000 nM	> 59000 nM	> 10000 nM	4 nM
COc1cc2c(cc1OCC1CCCCO1)Nc1cc(-c3ccc([N+](=O)[O-])c(OC)c3)ccc1C(=O)N2 (stereo not drawn)	200 nM	2000 nM	2400 nM	4.8 nM
COc1cc2c(cc1OCc1ccncc1)Nc1cc(-c3ccc([N+](=O)[O-])c(OC)c3)ccc1C(=O)N2	50 nM	> 59000 nM	> 10000 nM	6.8 nM
COc1cc(-c2ccc3c(c2)Nc2ccccc2NC3=O)ccc1[N+](=O)[O-]		47700 nM		
COc1cc2c(cc1CCC(C)(C)O)Nc1cc(-c3ccc([N+](=O)[O-])c(OC)c3)ccc1C(=O)N2	600 nM	> 59000 nM	> 10000 nM	4 nM
